The results in this text go back to patent US6469060B2, “Compositions based on iodopropynyl-and formaldehyde donor compounds and to their use as preservatives” (Air Liquide Sante (International), priority 1997, dated 2002).

Molecules are shown by their SMILES.

Data set [1] can be described thus: Formaldehyde emission of N-formals, Dräger tubes (Example 9). The format is physicochemical. The note with it: pure N-formal, 1 g overnight in covered 400 ml beaker; for formaldehyde content: Dräger tubes (10 strokes). On the procedure:
For this purpose, 1 g of each of the N-formals was left to stand overnight in a 400 ml beaker covered with para-film. On the following day, the formaldehyde content was then measured using Dräger tubes (10 strokes) as described in Example 1.
The formaldehyde content was 15 ppm (2 strokes 3 ppm) in 3,3′-methylenebis(tetrahydro-2H-1,3-oxazine) and 25 ppm (2 strokes 5 ppm) in Mar 71™. Preparations of 80% by weight of each N-formal and 20% by weight of 1,2-propylene glycol display a clearly different behavior. For example, the addition of 1,2-PLG to 3,3′-methylenebis(tetrahydro-2H-1,3-oxazine) leads to a reduction in the formaldehyde content to form 1.5 to 2.5 ppm (20 strokes) and the addition to Mar 71™ to a reduction to 10 ppm (5 strokes 5 ppm), the formaldehyde content being determined as described above for pure N-formals.

Data set [2] can be described thus: Stability and compatibility of IPBC with various N-formals, storage at +40° C. in clear glass (Example 2). It is filed as physicochemical. The note with it: discoloration and IPBC degradation. On the procedure: The stability and compatibility of IPBC in compositions containing 3% by weight of IPBC, from 80 to 97% by weight of N-formals and […] by weight of 1,2-PLG were determined as a function of the storage time after the solutions had been stored at a temperature of +40° C. in clear glass.
The initially clear, colorless to slightly yellowish solutions became discoloured to varying degrees after storage for three months at a temperature of +40° C. Only the compositions based on IPBC and Mar 71 retained their clear, slightly yellowish appearance.
A summary of the development of the IPBC content, determined by means of HPLC (IPBC starting content 3% by weight) in the compositions investigated as a function of the storage period, is given in Table IV.

Regarding `C1COCN(CN2CCCOC2)C1` [3,3′-methylenebis(tetrahydro-2H-1,3-oxazine), reference compound], in data set [1], the “formaldehyde content, reading at 2 strokes” value was determined as 3 ppm and the formaldehyde content is 15 ppm.
The matching figures for `CC1CN(CN2COC(C)C2)CO1` (centres unmarked) [Mar 71™, 3,3′-methylenebis(5-methyloxazolidine)]: 5 ppm and 25 ppm.
`OCCN1CN(CCO)CN(CCO)C1` [Grotan BK TM, 1,3,5-tris(hydroxyethyl)hexahydrotriazine]: the “Compatibility with IPBC” value in data set [2] is given as “incompatible”.
